Here are results for 2 compounds from patent publication US10912743B2, “Compositions for treating inflammation and methods of treating the same” (Novan, Inc., priority 2016, dated 2021).

Marks after values point to notes of the source that are not given here.

Test [1] has as its system oxazolone-induced ear swelling. Put plainly: Oxazolone-induced ear swelling assay in BALB/c mice. The test is classed as in vivo.
Experimental: Groups of 5 BALB/c male mice weighing 22±2 g were used. The animals were sensitized by application of oxazolone (100 μL, 1.5% in acetone) to their preshaved abdominal surface. Seven days later, test substances (20 mg/ear) and vehicle (20 μL/ear) were applied topically to the anterior and posterior surfaces of the right ear 30 min before and 15 min after oxazolone (1%, 20 μL/ear) challenge. Ear swelling was measured with a Dyer model micrometer gauge at 24 hours after oxazolone challenge as an index of inflammation. Ear edema was calculated by subtracting the thickness of the left ear (normal control) from the right ear (treated ear). Percent inhibition was calculated according to the formula: (Ic −It)/Ic×100, where Ic and It refers to increase of ear thickness (mm) in control and treated mice, respectively. One-way ANOVA and Dunnett's test were used to determine statistical significance between vehicle control and treated groups. Significance is set at P<0.05.
Test substances and vehicles were each administered topically (TOP) at 30 minutes before and 15 minutes after challenge with the second application of oxazolone.
The test system used was a 7-day oxazolone-induced ear swelling assay. […] Ear swelling was measured with a Dyer model micrometer gauge at 24 hours after oxazolone challenge as an index of inflammation. Ear edema was calculated by subtracting the thickness of the left ear (normal control) from the right ear (treated ear) (Table 9). […] Percent inhibition was calculated according to the formula: (Ic−It)/Ic×100, where Ic and It refer to increase of ear thickness (mm) in control and treated mice, respectively. […]
BALB/c mice are sensitized with oxazolone exposure to the abdomen and are subsequently challenged (7 days post-sensitization) with oxazolone application to the right ear. […] The effect of anti-inflammatory test articles is then assessed by measuring the amount of ear swelling, which is reported as a percentage in comparison to the study vehicle. […]
Another test concerns Th17/IL-17 pathway. Conditions: skin biopsies stimulated with cytokine cocktail 48 hrs; cited from earlier work.

Take `C[C@@H]1C[C@H]2[C@@H]3CCC4=CC(=O)C=C[C@]4(C)[C@@]3(F)[C@@H](O)C[C@]2(C)[C@@]1(O)C(=O)CO` [Dexamethasone]: the “Ear Swelling % Inhibition (vs. Vehicle A)” value in test [1] (Example 2 study, TOP x 2 (30 min before, 15 min after oxazolone challenge), 24 hours, vs acetone/ethanol 1/1) was 85* %. Also, the “% inhibition of oxazolone-induced ear swelling vs ethanol/acetone” value in test [1] (Example 4 study, TOP x 2, 24 hours) came to 86%. In addition, the “Net Swelling on Right Ear (Mean ± SEM, ×0.01 mm)” value in test [1] (Example 4 study, TOP x 2, 24 hours after oxazolone challenge) was found to be 3.2 ± 0.4 ×0.01 mm.

With `C=C1/C(=C\C=C2/CCC[C@]3(C)[C@@H]([C@H](C)/C=C/[C@@H](O)C4CC4)CC[C@@H]23)C[C@@H](O)C[C@@H]1O` [calcipotriol], the IL-17 secretion result in the test with Th17/IL-17 pathway is recorded as “partial inhibition of IL-17 secretion”.
